The structures appear in SMILES notation.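 1) Cells in 96-well plates. 2) Compound, 48 h, 5 concentrations. 3) Linear interpolation between surrounding doses. 4) Unreached endpoint = highest concentration. TGI is the concentration that stops growth completely.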

Holding throughout (experiment): growth of human tumour cells (NCI), 48 h
Assay [1] concerns MDA-MB-231 breast.
For assay [2], the system named is OVCAR-3 ovarian.
Assay [3] deals with HOP-62 NSCLC.
For assay [4], the system named is MDA-N.
Assay [5] relates to SK-MEL-5 melanoma.
The test system of assay [6] is IGROV1 ovarian.
In assay [7] the test system is HOP-92 NSCLC.
Assay [8] concerns NCI-H522 lung.
Assay [9] relates to SN12C renal.
Assay [10] concerns TK-10 renal.
In assay [11] the test system is SW-620 colon.
Assay [12] has as its system SF-539 CNS.
For assay [13], the system named is SK-MEL-28 melanoma.
Assay [14] has as its system K-562 leukemia.
Assay [15] concerns RPMI-8226 leukemia.
Assay [16] deals with OVCAR-4 ovarian.
For assay [17], the system named is SR leukemia.
Assay [18] deals with NCI-H460 lung.
For assay [19], the system named is NCI/ADR-RES ovarian.
In assay [20] the test system is A498 renal.

In the case of `O=P1(c2ccccc2)C(c2ccccc2)CCC1c1ccccc1` (stereo unspecified), the TGI in assay [1], in [2], in assay [3], in [4], in [5] and in assay [6] was greater than 100 µM in each case. In addition, the TGI in assay [7], in assay [8], in [9], in assay [10], in assay [11] and in assay [12] was greater than 100 µM each time. For the same molecule, the TGI was greater than 100 µM in assay [13], greater than 100 µM in assay [14] and 78.2 µM in assay [15].
With `CCOC(=O)c1c(N)sc2c1CC(C)CC2` (stereo unspecified), the TGI in assay [16] is greater than 100 µM; in assay [1] it was greater than 100 µM; in assay [2] it was greater than 100 µM; in assay [3], greater than 100 µM; in assay [4] it was greater than 100 µM; in [17] it was 86.8 µM. In addition, the TGI in assay [5] is 37.7 µM; in assay [6], greater than 100 µM; in assay [18], greater than 100 µM; in assay [7], 74.2 µM; in [19] it was greater than 100 µM; in assay [8], 40.5 µM. In addition, the TGI in assay [9] is greater than 100 µM; in [10] it was greater than 100 µM; in assay [11], greater than 100 µM; in assay [13], greater than 100 µM; in assay [14] it was greater than 100 µM; in assay [15], 75 µM.
`CCCCSC1=N/C(=C\c2ccccc2O)C(=O)N1`: the TGI in assay [20], in [16], in assay [1], in assay [2], in assay [3] and in assay [4] was greater than 100 µM each time. Moreover, the TGI in assay [6], in assay [18], in assay [7], in assay [19], in assay [8] and in assay [9] was greater than 100 µM throughout. Moreover, the TGI in assay [10], in [11], in assay [12], in [13], in [14] and in assay [15] was greater than 100 µM throughout.
Take `O=[N+]([O-])c1ccc(-c2csc(N=Nc3c(O)[nH]c4ccccc34)n2)cc1`: the TGI in [16], in [1], in [2], in assay [3], in assay [4] and in assay [5] was greater than 100 µM throughout. In addition, the TGI in assay [6] was 57.9 µM; in assay [18], 22.9 µM; in [7], 74.5 µM; in [19], greater than 100 µM; in assay [9], 96.5 µM; in assay [10], 35.6 µM. In addition, the TGI was greater than 100 µM in assay [11], 39.3 µM in assay [12] and greater than 100 µM in [13].
Consider `Cc1cn(C2CC(n3cc(Cn4ccc(=O)[nH]c4=O)nn3)C(CO)O2)c(=O)[nH]c1=O` (stereo unspecified), for which the TGI in [20], in [16], in [1], in [2], in assay [3] and in [4] was greater than 100 µM throughout. For the same molecule, the TGI in assay [5], in assay [7], in assay [19], in [9], in assay [10] and in [11] was greater than 100 µM throughout. Besides, the TGI in assay [12], in assay [13] and in assay [15] was greater than 100 µM each time.
Regarding `COC(=O)Nc1nc2ccc(NS(=O)(=O)c3cccs3)cc2[nH]1`, the TGI in assay [20] was 91.7 µM; in assay [16], greater than 100 µM; in assay [1], greater than 100 µM; in assay [2], 49.2 µM; in assay [3], 82.4 µM; in assay [4], 16.8 µM. Besides, the TGI in assay [5] was greater than 100 µM; in assay [6], 39.7 µM; in assay [18] it was greater than 100 µM; in assay [7], 70.4 µM; in [19], 85.3 µM; in assay [8] it was 29.9 µM. Moreover, the TGI in assay [9] is greater than 100 µM; in [10] it was 68 µM; in assay [11], greater than 100 µM; in [12], greater than 100 µM; in [13] it was greater than 100 µM; in [14] it was greater than 100 µM. In assay [15], this molecule displayed a TGI greater than 100 µM.
For `CN(O)C(=O)CCC(NC(=O)CCC(N)C(=O)O)C(=O)NCC(=O)O` (stereo unspecified), the TGI in assay [20], in [16], in assay [1], in [2], in [3] and in [4] was greater than 100 µM each time. In addition, the TGI in assay [5], in assay [6], in [18], in assay [7], in assay [19] and in assay [8] was greater than 100 µM in each case. Moreover, the TGI in assay [9], in assay [10], in assay [11], in assay [12], in assay [13] and in assay [14] was greater than 100 µM each time. Besides, the TGI in [15] was greater than 100 µM.
`CCOP(=O)(CC(=O)C1CC1)OCC`: the TGI in [16], in assay [1], in assay [3], in assay [4], in assay [17] and in assay [5] was greater than 100 µM in each case. Also, the TGI in assay [6], in assay [18], in [19], in [8], in [9] and in assay [10] was greater than 100 µM in each case. For the same molecule, the TGI in assay [11], in [12], in assay [13] and in assay [14] was greater than 100 µM each time.
Turning to `Cc1nc2c(c(N3CCN(C)CC3)n1)Cc1ccccc1-2`, the TGI is greater than 100 µM in assay [1]; greater than 100 µM in assay [4]; greater than 100 µM in assay [5]; 47.4 µM in assay [18]; greater than 100 µM in [7]; greater than 100 µM in assay [19]. Also, the TGI was 56.4 µM in assay [8]; 88.1 µM in [10]; greater than 100 µM in [11]; greater than 100 µM in [12]; greater than 100 µM in assay [14]; greater than 100 µM in assay [15].
With `CCOC(=O)CNC(=O)C(CCC(=O)N(C)O)NC(=O)CCC(N)C(=O)O` (stereo unspecified), the TGI in [20], in assay [16], in assay [1], in [2], in assay [3] and in assay [4] was greater than 100 µM throughout. For the same molecule, the TGI in [5], in assay [6], in assay [18], in assay [7], in assay [19] and in [8] was greater than 100 µM in each case. The TGI in [9], in assay [10], in assay [11], in assay [12], in assay [13] and in assay [14] was greater than 100 µM each time. Moreover, in assay [15], the TGI was greater than 100 µM.
`COC(=O)C1CCC(=O)N1C(c1ccc(OC)cc1)c1cc(OC)c(OC)c(OC)c1` (stereo unspecified): the TGI is greater than 100 µM in assay [16]; 64.9 µM in assay [1]; 0.597 µM in assay [2]; greater than 100 µM in [3]; 1.97 µM in [4]; 3.43 µM in assay [5]. In addition, the TGI in assay [7] is greater than 100 µM; in assay [19], 1.01 µM; in assay [8], 0.212 µM; in assay [9] it was greater than 100 µM; in [10] it was greater than 100 µM; in assay [11], greater than 100 µM. In addition, the TGI in assay [13] is greater than 100 µM; in assay [14], greater than 75.8 µM.
Turning to `COC(=O)C(Cc1c[nH]c2ccccc12)NC(=O)C(Cc1cnc[nH]1)NC(=O)C1CCC(=O)N1C(=O)OCc1ccccc1` (stereo unspecified), the TGI in assay [20] is 68.3 µM; in assay [3], greater than 100 µM; in assay [4], greater than 100 µM; in [17], greater than 100 µM; in assay [5], greater than 100 µM; in [6], greater than 100 µM. The TGI in [18], in [7], in assay [10], in [11], in assay [13] and in assay [14] was greater than 100 µM throughout. This molecule displayed a TGI in [15] greater than 100 µM.
Take `CN1CCC2(CC1)SSC1(CCN(C)CC1)S2`: the TGI in assay [16], in [1], in assay [3], in [4], in [17] and in assay [5] was greater than 100 µM throughout. In addition, the TGI in assay [18], in assay [7], in assay [19], in [9], in [11] and in assay [12] was greater than 100 µM throughout. The TGI in assay [13], in assay [14] and in assay [15] was greater than 100 µM in each case.
Regarding `O=C(O)/C=C/c1ccc(Oc2ccccc2C(=O)O)o1`, the TGI in assay [16], in assay [1], in assay [3], in [4], in assay [17] and in assay [5] was greater than 10 µM throughout. Besides, the TGI in assay [6], in assay [7], in assay [19], in assay [8], in assay [9] and in [10] was greater than 10 µM throughout. The TGI in assay [11], in [12], in [13], in assay [14] and in [15] was greater than 10 µM in each case.
As for `Cc1ccc2c(c1)nc1n2C(c2c(F)cccc2F)SC1` (stereo unspecified), the TGI in [16] is greater than 100 µM; in assay [1], greater than 100 µM; in [2], greater than 100 µM; in [3], greater than 100 µM; in assay [4] it was greater than 100 µM; in [17], 87.9 µM. Besides, the TGI in assay [6], in assay [18], in [19], in [8], in [9] and in assay [10] was greater than 100 µM each time. In addition, the TGI in [11] was greater than 100 µM; in assay [12], 59.2 µM; in assay [13] it was greater than 100 µM; in [14], greater than 100 µM; in assay [15], greater than 100 µM.
In the case of `O=[N+]([O-])c1ncc(N(CCO)CCO)s1`, the TGI in assay [20], in [16], in assay [1], in assay [2], in assay [3] and in [4] was greater than 100 µM in each case. The TGI in [17] was greater than 100 µM; in assay [18] it was greater than 100 µM; in assay [8] it was 35.6 µM; in assay [9] it was greater than 100 µM; in assay [10], 79.5 µM; in assay [11], greater than 100 µM. Besides, the TGI in [12] worked out at 30.7 µM; in assay [13] it was 33.2 µM; in assay [14], 57.5 µM; in [15], 44.8 µM.
In the case of `O=c1[nH]c(NCc2cccnc2)nc2nc[nH]c12`, the TGI in assay [20], in [16], in assay [1], in [2], in [3] and in assay [4] was greater than 100 µM throughout. In addition, the TGI in assay [5], in [6], in assay [18], in assay [7], in [19] and in [8] was greater than 100 µM in each case. The TGI in [9], in [10], in [11], in assay [12], in [14] and in assay [15] was greater than 100 µM in each case.

The record behind these values is PubChem BioAssay (NCI).
